Laboratory results taken from patent publication US11136324B2, “Substituted imidazoles as apoptosis signal regulating kinase 1 inhibitors” (Jiangsu Hansoh Pharmaceutical Group Co., Ltd., priority 2017, dated 2021).

What was measured:
[1] = target: ASK1 kinase (Homo sapiens (Human), UniProt Q99683); experiment: ASK1 enzymatic test (TR-FRET); format: biochemical; conditions: ASK1 kinase activity
Method: In this test, the fluorescence-resonance energy transfer (TR-FRET) method was used to determine the inhibition effect of the test compounds on ASK1 kinase activity, and the half maximal inhibitory concentration IC50 of the compounds on ASK1 kinase activity was obtained.
1) 1˜5 μL of ASK1 enzyme solution was added to a 384-well plate, and the final concentration of the enzyme was 0.220 nM.
2) 1˜5 μL of gradient-diluted compound solution was added.
3) 1˜5 μL of a substrate mixture containing substrate polypeptides (final concentration: 100˜5000 nM) and ATP (final concentration: 100˜1000 uM) were added.
4) The mixture was incubated at room temperature for 0.5 to 5 hours.
5) 10 μL of EDTA and test solution containing labeled antibody were added, and the plate was incubated at room temperature for 2 to 24 hours.
6) The fluorescence signal value of each well was determined by a microplate reader at about 615 nm and 665 nm.
7) The inhibition rate was calculated by the fluorescence signal value.
8) The IC50 of the compound was obtained by curve fitting according to the inhibition rate at different concentrations.

[2] = Pharmacokinetic (PK) assay in mice; format: in vivo; conditions: Balb/c male mice, single intragastric administration, 5 mg/kg, plasma; for AUC(0-t) / AUC(0-inf) / half-life / MRT / Cmax: mouse, po; for AUC(0-t): read-out: Area under curve AUC0-t; for AUC(0-inf): read-out: Area under curve AUC0-∞; for half-life: read-out: Half-life t1/2 (converted); for MRT: read-out: Mean residence time MRT; for Cmax: read-out: Plasma concentration Cmax
Method: 2. Pharmacokinetic (PK) Assay in Mice
The pharmacokinetic test of the preferred examples of the present invention in mice was carried out in Balb/c male mice (Shanghai Jiesijie Laboratory Animal Co., LTD).
Administration mode: single intragastric administration.
Administration dosage: 5 mg/10 ml/kg.
Formulation: 0.5% CMC-Na, ultrasonic dissolution.
Sampling points: 0.5, 1, 2, 4, 6, 8 and 24 hours after administration.
1) 0.1 mL of blood was taken from the orbit, placed in a K2EDTA tube, and centrifuged for 5˜20 min at room temperature at 1000˜3000×g to separate the plasma, which was then stored at −80° C.
2) 160 μL of acetonitrile was added to 40 μL of plasma sample for precipitation, and then the mixture was centrifuged for 5˜20 minutes at 500˜2000×g.
3) 100 μL, of processed supernatant was taken and analyzed by LC/MS/MS assay to determine the concentration of the test compound.
LC-MS/MS Assay: • Liquid chromatography condition: Shimadzu LC-20AD pump • Mass spectrometry condition: AB Sciex API 4000 mass spectrometer • Chromatographic column: phenomenex Gemiu 5 μm C18 50×4.6 mm • Mobile phase: solution A was 0.1% aqueous formic acid solution, and solution B was acetonitrile • Flow rate: 0.8 mL/min • Elution time: 0-3.5 minutes gradient elution
The main parameters were calculated using WinNonlin 6.1.

[3] = tested on: non-alcoholic steatohepatitis mice induced by HFD (high fat diet)+CCl4; experiment: Effect on serum ALT and AST levels of non-alcoholic steatohepatitis mice induced by HFD+CCl4; format: in vivo, C57BL/6 mice; design: concentration or dose not given beside the values; conditions: oral once a day for 28 days, versus solvent control group
Excerpt: 3. The effect of the compounds of the present invention on the ALT and AST levels of non-alcoholic steatohepatitis mice induced by HFD (high fat diet)+CCl4
The object of this test example is to determine whether the compounds of the present invention can down-regulate the ALT and AST levels in the serum of non-alcoholic steatohepatitis mice or not.
C57BL/6 mice were adaptively fed in a SPF (specific pathogen free) barrier for 3 to 7 days, and then fed with HFD feed with a feeding cycle of 8 weeks. At the fifth week of HFD feeding, the HFD-induced mice were randomly grouped according to body weight, and orally administrated with CCl4 twice a week for 4 weeks. At the day of modeling with CCl4, the test compounds were orally administrated once a day continuously for 28 days. The solvent control group was administrated with the corresponding solvent of the test compounds with an administration volume of 10 mL/kg. The mice were euthanized with CO2 48 hours after the last administration of CCl4, and the non-anticoagulated venous blood was collected from the heart. The whole blood was left to stand at room temperature for at least 30 minutes, and then centrifuged for 5 minutes at 4° C. at 5000 rpm to separate the serum. The serum was dispensed into two portions in 1.5 mL EP tubes, and stored at −80° C. for later use.
The ALT and AST levels in mice serum were determined using the alanine aminotransfease (ALT/GPT) kit and aspartate aminotransferase (AST/GOT) kit. The ALT (or AST) test substrate solution was preheated in a 37° C. incubator; 20 μL of substrate solution were pipetted into a 96-well plate, and 5 μL of serum were pipetted into the 96-well plate as test well. After mixing well, the plate was sealed using a sealing film, and placed into the 37° C. incubator to incubate for 30 min. The ALT (or AST) standard curve was formulated, and 25 μL of which were pipetted into the 96-well plate; 20 μL of […] were pipetted into the 96-well plate as control well; 20 μL of 2,4-dinitrophenylhydrazine solution were added to each well. After mixing well, the plate was sealed using a sealing film, and placed into the 37° C. incubator to incubate for 20 min. 200 μL of 0.4 M NaOH solution were added to each well. The plate was placed on a shaker to shake for 15 min, and then measured on the BioTek Synergy H1 instrument using OD detection program at a wavelength of 510 nm. The absolute OD value was calculated from the OD value of each well. Absolute OD value=OD value of measured well−OD value of control well. The absolute OD value was taken into the standard curve to obtain the ALT (or AST) content of the sample. Samples that exceed the standard curve range should be re-tested after diluting the serum to an appropriate concentration. Data processing: (% ALT reduction rate)=(solvent control group−test compound)/solvent control group×100%; (% AST reduction rate)=(solvent control group−test compound)/solvent control group×100%.

Chain of ASK1 kinase (Q99683 whole entry): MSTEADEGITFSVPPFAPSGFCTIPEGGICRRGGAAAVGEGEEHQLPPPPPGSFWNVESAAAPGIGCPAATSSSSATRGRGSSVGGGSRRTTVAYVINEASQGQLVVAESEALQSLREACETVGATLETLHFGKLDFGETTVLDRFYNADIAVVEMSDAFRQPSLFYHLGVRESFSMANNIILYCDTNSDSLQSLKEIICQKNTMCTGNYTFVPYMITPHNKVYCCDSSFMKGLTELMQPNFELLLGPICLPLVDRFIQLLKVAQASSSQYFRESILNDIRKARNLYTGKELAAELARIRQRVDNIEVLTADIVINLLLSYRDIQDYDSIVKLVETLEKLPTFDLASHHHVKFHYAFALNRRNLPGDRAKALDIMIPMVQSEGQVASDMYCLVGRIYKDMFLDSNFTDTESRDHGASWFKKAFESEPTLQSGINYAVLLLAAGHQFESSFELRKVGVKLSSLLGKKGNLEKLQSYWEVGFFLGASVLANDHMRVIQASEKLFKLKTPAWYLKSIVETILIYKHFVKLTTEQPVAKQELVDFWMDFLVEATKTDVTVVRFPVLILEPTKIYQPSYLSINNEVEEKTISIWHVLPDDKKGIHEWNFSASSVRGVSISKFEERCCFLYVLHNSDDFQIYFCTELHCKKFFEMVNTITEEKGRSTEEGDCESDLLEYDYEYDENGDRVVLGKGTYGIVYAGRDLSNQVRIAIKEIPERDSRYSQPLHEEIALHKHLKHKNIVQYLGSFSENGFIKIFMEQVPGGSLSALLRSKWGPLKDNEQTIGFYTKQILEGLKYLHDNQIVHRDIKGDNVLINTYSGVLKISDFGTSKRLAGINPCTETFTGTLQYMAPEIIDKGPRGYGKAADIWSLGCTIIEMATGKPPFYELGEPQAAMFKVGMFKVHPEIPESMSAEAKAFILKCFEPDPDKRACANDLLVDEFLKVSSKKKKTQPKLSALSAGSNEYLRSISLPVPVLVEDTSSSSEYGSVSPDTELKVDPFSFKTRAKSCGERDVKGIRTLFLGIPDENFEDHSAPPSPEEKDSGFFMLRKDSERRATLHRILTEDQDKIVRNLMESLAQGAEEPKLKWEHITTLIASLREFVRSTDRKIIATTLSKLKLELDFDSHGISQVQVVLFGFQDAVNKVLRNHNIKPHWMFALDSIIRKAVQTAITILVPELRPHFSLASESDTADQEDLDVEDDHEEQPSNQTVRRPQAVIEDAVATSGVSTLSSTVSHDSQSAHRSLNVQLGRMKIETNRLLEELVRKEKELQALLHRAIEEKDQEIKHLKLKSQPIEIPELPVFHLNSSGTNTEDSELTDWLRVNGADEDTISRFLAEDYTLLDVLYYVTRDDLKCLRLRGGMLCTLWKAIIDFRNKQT

| Compound | IC50 [1] [nM] | Peak time tmax [2] [h] | AUC(0-t) [2] [ng·h/mL] | AUC(0-inf) [2] [ng·h/mL] | half-life [2] [h] | MRT [2] [h] | Cmax [2] [ng/mL] | ALT(U/L) reduction rate (%) [3] [%] | AST(U/L) reduction rate (%) [3] [%] |
| --- | --- | --- | --- | --- | --- | --- | --- | --- | --- |
| Cc1cc(F)c(C(=O)Nc2cccc(-c3nnc4n3C[C@H](C)C4)n2)cc1-n1cnc(C2CC2)c1 [Example 34, (R)-5-(4-Cyclopropyl-1H-imidazol-1-yl)-2-fluoro-4-methyl-N-(6-(6-methyl-6,7-dihydro-5H-pyrrolo[2,1-c][1,2,4]triazol-3-yl)pyridin-2-yl)benzamide] | 5.2 | 1 | 81100 | 81200 | 2.5 | 4.4 | 13500 | – | – |
| CCC[C@@H]1CCc2nnc(-c3cccc(NC(=O)c4cc(-n5cnc(C6CC6)c5)c(C)cc4F)n3)n21 [Example 59, (R)-5-(4-Cyclopropyl-1H-imidazol-1-yl)-2-fluoro-4-methyl-N-(6-(5-propyl-6,7-dihydro-5H-pyrrolo[2,1-c][1,2,4]triazol-3-yl)pyridin-2-yl)benzamide] | 2.9 | 1 | 19700 | 20200 | 1.4 | 2.3 | 7590 | – | – |
| Cc1cc(F)c(C(=O)Nc2cccc(-c3nncn3C(C)C)n2)cc1-n1cnc(C2CC2)c1 [GS-4997, reference compound] | – | – | – | – | – | – | – | 40 | 35 |
| Cc1cc(F)c(C(=O)Nc2cccc(-c3nnc4n3[C@H](C)CC4)n2)cc1-n1cnc(C2CC2)c1 [Example 8, (R)-5-(4-Cyclopropyl-1H-imidazol-1-yl)-2-fluoro-4-methyl-N-(6-(5-methyl-6,7-dihydro-5H-pyrrolo[2,1-c][1,2,4]triazol-3-yl)pyridin-2-yl)benzamide] | 1.8 | 1 | 29700 | 29800 | 2.7 | 4.6 | 4810 | – | – |
| Cc1cc(F)c(C(=O)Nc2cccc(-c3nnc4n3[C@@H](C)CC4)n2)cc1-n1cnc(C(C)(C)C)c1 [Example 16, (S)-5-(4-(tert-Butyl)-1H-imidazol-1-yl)-2-fluoro-4-methyl-N-(6-(5-methyl-6,7-dihydro-5H-pyrrolo[2,1-c][1,2,4]triazol-3-yl)pyridin-2-yl)benzamide] | 4.1 | 1 | 13600 | 13900 | 1.4 | 2 | 6580 | – | – |

The remaining compounds from weak to strong by IC50 [1], led by results:

| IC50 [1] [nM] | Peak time tmax [2] [h] | AUC(0-t) [2] [ng·h/mL] | AUC(0-inf) [2] [ng·h/mL] | half-life [2] [h] | MRT [2] [h] | Cmax [2] [ng/mL] | Compound | ALT(U/L) reduction rate (%) [3] [%] | AST(U/L) reduction rate (%) [3] [%] |
| --- | --- | --- | --- | --- | --- | --- | --- | --- | --- |
| 10.6 | 1 | 29400 | 29400 | 1.1 | 2.1 | 13200 | COC[C@@H]1CCc2nnc(-c3cccc(NC(=O)c4cc(-n5cnc(C6CC6)c5)c(C)cc4F)n3)n21 [Example 11, (S)-5-(4-Cyclopropyl-1H-imidazol-1-yl)-2-fluoro-N-(6-(5-(methoxymethyl)-6,7-dihydro-5H-pyrrolo[2,1-c][1,2,4]triazol-3-yl)pyridin-2-yl)-4-methylbenzamide] | – | – |
| 9 | 1 | 21000 | 21000 | 1.3 | 2.8 | 6150 | Cc1cc(F)c(C(=O)Nc2cccc(-c3nnc4n3[C@@H](C)CC4)n2)cc1-n1cnc(C(C)C)c1 [Example 14, (S)-2-Fluoro-5-(4-isopropyl-1H-imidazol-1-yl)-4-methyl-N-(6-(5-methyl-6,7-dihydro-5H-pyrrolo[2,1-c][1,2,4]triazol-3-yl)pyridin-2-yl)benzamide] | – | – |
| 7.7 | 1 | 83900 | 83900 | 2 | 4 | 17100 | Cc1cc(F)c(C(=O)Nc2cccc(-c3nnc4n3C(C(F)(F)F)CC4)n2)cc1-n1cnc(C2CC2)c1 (stereo not shown) [Example 41, 5-(4-Cyclopropyl-1H-imidazol-1-yl)-2-fluoro-4-methyl-N-(6-(5-(trifluoromethyl)-6,7-di hydro-5H-pyrrolo[2,1-c][1,2,4]triazol-3-yl)pyridin-2-yl)benzamide] | – | – |
| 7.2 | 0.5 | 47900 | 48600 | 4.7 | 5.9 | 5170 | Cc1cc(F)c(C(=O)Nc2cccc(-c3nnc4n3CC(C)C4)n2)cc1-n1cnc(C2CC2)c1 (stereo not shown) [Example 33, 5-(4-Cyclopropyl-1H-imidazol-1-yl)-2-fluoro-4-methyl-N-(6-(6-methyl-6,7-dihydro-5H-pyrrolo[2,1-c][1,2,4]triazol-3-yl)pyridin-2-yl)benzamide] | – | – |
| 6.6 | 1 | 29000 | 29900 | 1.3 | 2.6 | 9180 | CCC[C@H]1CCc2nnc(-c3cccc(NC(=O)c4cc(-n5cnc(C6CC6)c5)c(C)cc4F)n3)n21 [Example 60, (S)-5-(4-Cyclopropyl-1H-imidazol-1-yl)-2-fluoro-4-methyl-N-(6-(5-propyl-6,7-dihydro-5H-pyrrolo[2,1-c][1,2,4]triazol-3-yl)pyridin-2-yl)benzamide] | – | – |
| 5 | 1 | 38600 | 42500 | 2.4 | 3.6 | 9940 | CC[C@H]1CCc2nnc(-c3cccc(NC(=O)c4cc(-n5cnc(C6CC6)c5)c(C)cc4F)n3)n21 [Example 56, (S)-5-(4-Cyclopropyl-1H-imidazol-1-yl)-N-(6-(5-ethyl-6,7-dihydro-5H-pyrrolo[2,1-c][1,2,4]triazol-3-yl)pyridin-2-yl)-2-fluoro-4-methylbenzamide] | – | – |
| 4.9 | 1 | 57200 | 57700 | 3.5 | 5.8 | 5890 | Cc1cc(F)c(C(=O)Nc2cccc(-c3nnc4n3[C@H](CF)CC4)n2)cc1-n1cnc(C2CC2)c1 [Example 51, (S)-5-(4-Cyclopropyl-1H-imidazol-1-yl)-2-fluoro-N-(6-(5-(fluoromethyl)-6,7-dihydro-5H-pyrrolo[2,1-c][1,2,4]triazol-3-yl)pyridin-2-yl)-4-methylbenzamide] | – | – |
